Results taken from patent US11339136B2 (Novartis AG, priority 2016, dated 2022).

Molecular target: T1, hNLRP3 (Homo sapiens, UniProt Q96P20)
T1 construct: THP-1 cells were purchased from the American Type Culture Collection; host or cells: THP-1 cells, PMA-differentiated
Assay: IL-1β production in PMA-differentiated THP-1 cells stimulated with gramicidin
Assay type: cell-based
Details: gramicidin 5 μM, IL-1β in supernatant, Table 2
Procedure: Bioassay: IL-1β Production in PMA-Differentiated THP-1 Cells Stimulated with Gramicidin. Procedure 1:
Cell culture—THP-1 cells were purchased from the American Type Culture Collection and sub-cultured according to instructions from the supplier. Prior to experiments, cells were cultured in RPMI 1640 containing 10% heat inactivated FBS, penicillin (100 units/ml) and streptomycin (100 μg/ml), and maintained in log phase prior to experimental setup. Prior to the experiment THP-1 were treated with PMA (Phorbol 12-myristate 13-acetate) (10 μg/ml) for 24 hours. The day of the experiment the media was removed and attaching cells were treated with trypsin for 2 minutes, cells were then collected, washed with PBS (phosphate buffer saline), spin down, resuspended in 2% heat inactivated FBS with RPMI at a concentration of 1×10^6 cells/ml, and 100 ul was plated in a 96 well plate. Cells were incubated with compounds for 1 hours and then stimulated with Gramicidin (5 μM) (Enzo) for 2 hours. Cell free supernatant was collected and the production of IL-1β was evaluated by ELISA. Compounds were dissolved in dimethyl sulfoxide (DMSO) and added to the culture medium to achieve desired concentration (e.g. 100, 30, 10, 3, 1, 0.3 or 0.1 μM). A vehicle only control was run concurrently with each experiment. Final DMSO concentration was 1%.
THP-1 cells were purchased from the American Type Culture Collection and sub-cultured according to instructions from the supplier. Prior to experiments, cells were cultured in complete RPMI 1640 (containing 10% heat inactivated FBS, penicillin (100 units/ml) and streptomycin (100 μg/ml)), and maintained in log phase prior to experimental setup. Prior to the experiment THP-1 were treated with PMA (Phorbol 12-myristate 13-acetate) (20 ng/ml) for 16-18 hours. On the day of the experiment the media was removed and adherent cells were detached with trypsin for 5 minutes. Cells were then harvested, washed with complete RPMI 1640, spun down, resuspended in RPMI 1640 (containing 2% heat inactivated FBS, penicillin (100 units/ml) and streptomycin (100 μg/ml). The cells were plated in a 384-well plate at a density of 50,000 cells/well (final assay volume 50 μl). Compounds were dissolved in dimethyl sulfoxide (DMSO) and added to the culture medium to achieve desired concentration (e.g. 100, 33, 11, 3.7, 1.2, 0.41, 0.14, 0.046, 0.015, 0.0051, 0.0017 μM). Cells were incubated with compounds for 1 hour and then stimulated with gramicidin (5 μM) (Enzo) for 2 hours. Cell free supernatant was collected and the production of IL-1β was evaluated by HTRF (cisbio). A vehicle only control was run concurrently with each experiment. Final DMSO concentration was 0.38%.

T1 sequence (Q96P20 whole entry): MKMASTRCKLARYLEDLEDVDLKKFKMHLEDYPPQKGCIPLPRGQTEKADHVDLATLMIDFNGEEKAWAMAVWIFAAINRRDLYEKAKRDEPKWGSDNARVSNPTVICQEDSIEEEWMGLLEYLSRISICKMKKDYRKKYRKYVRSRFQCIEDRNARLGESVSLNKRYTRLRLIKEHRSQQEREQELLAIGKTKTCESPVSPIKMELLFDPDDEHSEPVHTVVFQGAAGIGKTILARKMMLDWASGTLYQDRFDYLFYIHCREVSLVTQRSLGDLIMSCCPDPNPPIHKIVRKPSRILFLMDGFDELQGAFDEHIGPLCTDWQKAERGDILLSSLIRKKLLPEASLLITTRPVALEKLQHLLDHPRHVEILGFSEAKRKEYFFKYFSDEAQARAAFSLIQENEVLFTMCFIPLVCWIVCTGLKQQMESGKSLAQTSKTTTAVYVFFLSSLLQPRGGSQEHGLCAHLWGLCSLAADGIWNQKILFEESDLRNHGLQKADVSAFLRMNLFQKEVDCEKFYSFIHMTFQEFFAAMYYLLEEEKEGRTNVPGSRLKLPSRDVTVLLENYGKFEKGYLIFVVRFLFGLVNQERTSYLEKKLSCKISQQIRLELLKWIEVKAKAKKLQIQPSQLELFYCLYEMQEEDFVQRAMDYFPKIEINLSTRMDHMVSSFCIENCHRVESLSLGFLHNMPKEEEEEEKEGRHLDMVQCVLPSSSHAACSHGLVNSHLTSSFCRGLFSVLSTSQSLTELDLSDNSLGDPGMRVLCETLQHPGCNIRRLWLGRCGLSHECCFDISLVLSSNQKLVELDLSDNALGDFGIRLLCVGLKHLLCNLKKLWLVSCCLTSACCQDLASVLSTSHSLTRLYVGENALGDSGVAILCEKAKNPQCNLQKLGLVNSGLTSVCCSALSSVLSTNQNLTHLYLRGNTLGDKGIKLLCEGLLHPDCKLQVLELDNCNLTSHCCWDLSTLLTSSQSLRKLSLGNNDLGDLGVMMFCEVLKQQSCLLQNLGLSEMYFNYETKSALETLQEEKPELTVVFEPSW

SMILES | IC50 [nM]
N#Cc1c2c(c(NC(=O)NS(=O)(=O)c3cc(C4(O)CC4)co3)c3c1CCC3)CCC2 [Compound 206, N-(8-cyano-1,2,3,5,6,7-hexahydros-indacen-4-ylcarbamoyl)-4-(1-hydroxycyclopropyl) furan-2-sulfonamide] | < 1000
O=C(Nc1c2c(c(F)c3c1CCC3)CCC2)NS(=O)(=O)c1cc(C2(O)CC2)co1 [Compound 207, N-(8-fluoro-1,2,3,5,6,7-hexahydros-indacen-4-ylcarbamoyl)-4-(1-hydroxycyclo-propyl)furan-2-sulfonamide] | < 1000
CC(C)(O)c1cnc(S(=O)(=O)NC(=O)Nc2c3c(c(F)c4c2CCC4)CCC3)s1 [Compound 209, N-(8-fluoro-1,2,3,5,6,7-hexahydros-indacen-4-ylcarbamoyl)-5-(2-hydroxypropan-2-yl)thiazole-2-sulfonamide] | < 1000
O=C(Nc1c2c(c(Cl)c3c1CCC3)CCC2)NS(=O)(=O)c1cc(C2(O)CC2)cs1 [Compound 210, N-(8-chloro-1,2,3,5,6,7-hexahydros-indacen-4-ylcarbamoyl)-4-(1-hydroxycyclo-propyl)thiophene-2-sulfonamide] | < 1000
CC(C)c1cc(F)cc(C(C)C)c1NC(=O)NS(=O)(=O)c1cc(C(C)(C)O)cs1 [Compound 211, N-(4-fluoro-2,6-diisopropylphenyl-carbamoyl)-4-(2-hydroxypropan-2-yl)thiophene-2-sulfonamide] | < 1000
CC(C)c1ccc(F)c(C(C)C)c1NC(=O)NS(=O)(=O)c1cc(C2(O)CC2)co1 [Compound 212] | < 1000
CC(C)c1ccc(F)c(C(C)C)c1NC(=O)NS(=O)(=O)c1ncc(C(C)(C)O)s1 [Compound 213, N-(3-fluoro-2,6-diisopropylphenyl-carbamoyl)-5-(2-hydroxypropan-2-yl)thiazole-2-sulfonamide] | < 1000
O=C(Nc1c2c(cc3c1CCC3)CCC2)NS(=O)(=O)c1cc(C2(O)CC2)cs1 [Compound 216] | < 1000
CC(C)c1cc(C#N)cc(C(C)C)c1NC(=O)NS(=O)(=O)c1cc(C(C)(C)O)cs1 [Compound 217, N-(4-cyano-2,6-diisopropylphenyl-carbamoyl)-4-(2-hydroxypropan-2-yl)thiophene-2-sulfonamide] | < 1000
CC(C)c1ccc(F)c(C(C)C)c1NC(=O)NS(=O)(=O)c1cc(C2(O)CC2)cs1 [Compound 218, N-(3-fluoro-2,6-diisopropylphenyl-carbamoyl)-4-(1-hydroxycyclo-propyl)thiophene-2-sulfonamide] | < 1000
CC(C)c1cc(Cl)cc(C(C)C)c1NC(=O)NS(=O)(=O)c1ncc(C(C)(C)O)s1 [Compound 219, N-(4-chloro-2,6-diisopropylphenyl-carbamoyl)-5-(2-hydroxypropan-2-yl)thiazole-2-sulfonamide] | < 1000
CC(C)(O)c1cnc(S(=O)(=O)NC(=O)Nc2c3c(c(C#N)c4c2CCC4)CCC3)s1 [Compound 220, N-(8-cyano-1,2,3,5,6,7-hexahydros-indacen-4-ylcarbamoyl)-5-(2-hydroxypropan-2-yl)thiazole-2-sulfonamide] | 1000 to 5000
CC(C)(O)c1cnc(S(=O)(=O)NC(=O)Nc2c3c(c(Cl)c4c2CCC4)CCC3)s1 [Compound 221, N-(8-chloro-1,2,3,5,6,7-hexahydros-indacen-4-ylcarbamoyl)-5-(2-hydroxypropan-2-yl)thiazole-2-sulfonamide] | < 1000
N#Cc1c2c(c(NC(=O)NS(=O)(=O)c3cc(C4(O)CC4)cs3)c3c1CCC3)CCC2 [Compound 223, N-(8-cyano-1,2,3,5,6,7-hexahydros-indacen-4-ylcarbamoyl)-4-(1-hydroxycyclo-propyl)thiophene-2-sulfonamide] | < 1000
CC(C)(O)c1csc(S(=O)(=O)NC(=O)Nc2c3c(c(C#N)c4c2CCC4)CCC3)c1 [Compound 224, N-(8-cyano-1,2,3,5,6,7-hexahydros-indacen-4-ylcarbamoyl)-4-(2-hydroxypropan-2-yl)thiophene-2-sulfonamide] | < 1000
CC(C)c1cc(C#N)cc(C(C)C)c1NC(=O)NS(=O)(=O)c1ncc(C(C)(C)O)s1 [Compound 226, N-(4-cyano-2,6-diisopropylphenyl-carbamoyl)-5-(2-hydroxypropan-2-yl)thiazole-2-sulfonamide] | < 1000
CC(C)c1cccc(C(C)C)c1NC(=O)NS(=O)(=O)c1ncc(C(C)(C)O)s1 [Compound 227, N-(2,6-diisopropylphenyl-carbamoyl)-5-(2-hydroxypropan-2-yl)thiazole-2-sulfonamide] | < 1000
CC(C)c1ccc(F)c(C(C)C)c1NC(=O)NS(=O)(=O)c1cc(C(C)(C)O)cs1 [Compound 228, N-(3-fluoro-2,6-diisopropylphenyl-carbamoyl)-4-(2-hydroxypropan-2-yl)thiophene-2-sulfonamide] | < 1000

The remaining lines, values ahead:

IC50 [nM] | SMILES
< 1000 | CC(C)c1cc(Cl)cc(C(C)C)c1NC(=O)NS(=O)(=O)c1cc(C2(O)CC2)cs1 [Compound 229, N-(4-chloro-2,6-diisopropylphenyl-carbamoyl)-4-(1-hydroxycyclo-propyl)thiophene-2-sulfonamide]
< 1000 | CC(C)c1cccc(C(C)C)c1NC(=O)NS(=O)(=O)c1cc(C2(O)CC2)cs1 [Compound 230, N-(2,6-diisopropylphenyl-carbamoyl)-4-(1-hydroxycyclo-propyl)thiophene-2-sulfonamide]
< 1000 | CC(C)(O)c1csc(S(=O)(=O)NC(=O)Nc2c3c(c(Cl)c4c2CCC4)CCC3)c1 [Compound 232, N-(8-chloro-1,2,3,5,6,7-hexahydros-indacen-4-ylcarbamoyl)-4-(2-hydroxypropan-2-yl)thiophene-2-sulfonamide]
< 1000 | CC(C)(O)c1cnc(S(=O)(=O)NC(=O)Nc2c3c(cc4c2CCC4)CCC3)s1 [Compound 233, N-(1,2,3,5,6,7-hexahydros-indacen-4-ylcarbamoyl)-5-(2-hydroxypropan-2-yl)thiazole-2-sulfonamide]
< 1000 | CC(C)c1cc(C#N)cc(C(C)C)c1NC(=O)NS(=O)(=O)c1cc(C2(O)CC2)co1 [Compound 235, N-(4-cyano-2,6-diisopropylphenyl-carbamoyl)-4-(1-hydroxycyclo-propyl)furan-2-sulfonamide]
< 1000 | CC(C)c1cc(Cl)cc(C(C)C)c1NC(=O)NS(=O)(=O)c1cc(C2(O)CC2)co1 [Compound 236, N-(4-chloro-2,6-diisopropylphenyl-carbamoyl)-4-(1-hydroxycyclo-propyl)furan-2-sulfonamide]
< 1000 | O=C(Nc1c2c(cc3c1CCC3)CCC2)NS(=O)(=O)c1cc(C2(O)CC2)co1 [Compound 247, 1-(1,2,3,5,6,7-hexahydro-s-indacen-4-yl)-3-[4-(1-hydroxycyclopropyl)furan-2-sulfonyl]urea]
1000 to 5000 | CC(C)c1ccc(F)c(C(C)C)c1NC(=O)NS(=O)(=O)c1cc(C(C)(C)O)c(Cl)s1 [Compound 250, 5-chloro-N-(3-fluoro-2,6-diisopropylphenylcarbamoyl)-4-(2-hydroxypropan-2-yl)thiophene-2-sulfonamide]
< 1000 | CC(C)c1cc(C#N)cc(C(C)C)c1NC(=O)NS(=O)(=O)c1cc(C(C)(C)O)c(Cl)s1 [Compound 251, 5-chloro-N-(4-cyano-2,6-diisopropylphenyl-carbamoyl)-4-(2-hydroxypropan-2-yl)thiophene-2-sulfonamide]
5000 to 15000 | CC(C)c1ccc(Cl)c(C(C)C)c1NC(=O)NS(=O)(=O)c1cc(C(C)(C)O)c(Cl)s1 [Compound 252, 5-chloro-N-(3-chloro-2,6-diisopropylphenylcarbamoyl)-4-(2-hydroxypropan-2-yl)thiophene-2-sulfonamide]
< 1000 | CC(C)c1cc(F)cc(C(C)C)c1NC(=O)NS(=O)(=O)c1cc(C(C)(C)O)c(Cl)s1 [Compound 253, 5-chloro-N-(4-fluoro-2,6-diisopropylphenyl-carbamoyl)-4-(2-hydroxypropan-2-yl)thiophene-2-sulfonamide]
< 1000 | CC(C)c1cc(Cl)cc(C(C)C)c1NC(=O)NS(=O)(=O)c1cc(C(C)(C)O)c(Cl)s1 [Compound 254, 5-chloro-N-(4-chloro-2,6-diisopropylphenyl-carbamoyl)-4-(2-hydroxypropan-2-yl)thiophene-2-sulfonamide]
< 1000 | CC(C)(O)c1cc(S(=O)(=O)NC(=O)Nc2c3c(cc4c2CCC4)CCC3)oc1Cl [Compound 255, 5-chloro-N-(1,2,3,5,6,7-hexahydros-indacen-4-ylcarbamoyl)-4-(2-hydroxypropan-2-yl)furan-2-sulfonamide]
